Assays:
Assay type in all cases: cell-based, human
Chk1 and Chk2 = assay: Immunoblotting of activating phosphorylation of Chk1 and Chk2; conditions: following radiation, pretreated 24 hours
Method: (A) T4302 CD133+ cells were pretreated with DPAT or L685,458 for 24 hours prior radiation. One hour after radiation exposure, cells were harvested. The levels of activating phosphorylation of Chk1 and Chk2 were assessed by immunoblotting. (B) T4302 CD133+ cells were treated with 2 μM DAPT at 4, 24 hours prior to radiation (−24 hrs, or -4 hrs), or at 0, 4, 24 hours after radiation. Relative caspase 3/7 activities were measured 3 days after radiation exposure. *: p<0.001 by Student's t-test.
Antibodies, DNA constructs, lentiviruses and other reagents. The antibodies purchased from Cell Signaling Technology (Danvers, M A) include phosphor-S296-Chk1 (2349), total Chk1 (2345), phosphor-T68-Chk2 (2661), total Chk2 (2662), phospho-5473 Akt (#9271), total Akt (#9272), PTEN (#9556), phospho-S15-p53 (#9286), Bcl-2 (#2870), Bcl-xL (#2764), Mcl-1 (#4572), Puma (#4976). Other antibodies used in this study are p53 antibody (#sc-126, Santa Cruz Biotechnology, Santa Cruz, Calif.), and actin antibody (Millipore, Billerica, Mass.). The pcDNA3-Notch1 construct was kindly provided by Dr. Spyros Artavanis-Tsakonas, Harvard University. The coding sequences of intracellular domain of Notch1 (amino acid residues 1744-2556) was amplified by PCR and subcloned into the lentiviral vector pCDH-CMV-EF1-puro (System Biosciences, Mountain View, Calif.) through the EcoRI and NotI sites. […]

T4302 CD133+ cells [1] = assay: Annexin V staining, flow cytometry
Method: (§1) FIG. 2 is a series of graphs illustrating that γ-secretase inhibitors enhance radiation-induced cell death in glioma stem cells. (A) T4302 CD 133+ cells were pre-treated with DAPT or L685,458 for 4 hours and irradiated at 3 Gy. Percentage of dead cells was determined by trypan blue exclusion assay at 48 hours after radiation exposure. (B) T4302 CD 133+ cells were treated with GSIs ±radiation as indicated. Cells were then plated at 3000 cells per well in 96-well plates. Relative caspase 3/7 activities were determined by normalizing caspase activities to the corresponding cell titers. (C) T4302 CD 133+ cells were treated as described in FIG. 2A. 24 or 48 hours after radiation exposure, cells were labeled with FITC-conjugated Annexin V staining kit (BD Sciences) according to manufacturer's instructions and analyzed by flow cytometry. (D) T4302 CD 133+ cells were pre-treated with 2 μM DAPT for 4 hours, and were left unirradiated or irradiated at 1, 2 or 3 Gy. Relative caspase 3/7 activities were determined at 72 hours after radiation. (E) T4302 CD133+ cells were pre-treated with DAPT at indicated concentrations for 4 hours and irradiated at 3 Gy. Relative caspase activities were determined at 48 or 72 hours after radiation. *: p<0.01 by Student's t-test; #: p<0.01 by one-way ANOVA.

Notch signaling = assay: Notch-responsive luciferase reporter (RBP-Jκ reporter) assay; conditions: T4302 CD133+ cells; 2 μM DAPT or 0.5 μM L685,458 over night
Excerpt: FIG. 1 is a series of graphs illustrating that γ-secretase inhibitors reduce cell growth and clonogenic survival of glioma stem cells following radiation. (A) T4302 CD133+ glioma stem cells were transfected with a Notch-responsive luciferase reporter (RBP-JK reporter) pre-mixed with the vector directing constitutive expression of Renilla luciferase. Cells were left unirradiated or irradiated at 3 Gy, and were then collected to measure luciferase activities at time points as indicated. […] The relative mRNA levels of Hes2 were determined by quantitative real-time PCR at the time points as indicated. […] Total viable cell numbers were then determined by the CellTiter-Glo Luminescent Cell Viability Assay (Promega) for the following five days. […] Cells were then plated to form neurospheres, and the surviving fractions were determined as described in methods. […] (F,G) Neurosphere formation of T3359 and T4105 CD 133+ cells treated with GSIs alone, 3-Gy radiation alone, or the combination was determined as described in FIG. 1E. *: p<0.05 by Student's t-test; #: p<0.001 by one-way ANOVA.
Luciferase assay. […] The luciferase activities were determined by the Dual-luciferase assay system (Promega).

T4302 CD133+ cells [2] = assay: Trypan blue exclusion assay; conditions: two days after 3-Gy radiation
Method: as §1

Question: `CC(NC(=O)Cc1cc(F)cc(F)c1)C(=O)NC(C(=O)OC(C)(C)C)c1ccccc1` [DAPT, N-[N-(3,5-Difluorophenacetyl-L-alanyl)]-S-phenylglycine t-Butyl Ester] was tested. Which “activating phosphorylation of Chk1 or Chk2” value (Chk1 and Chk2) did it give?
Answer: Its value is “Neither of DAPT or L685,458 significantly altered”.

Question: What about the “Annexin V-positive labeled cells” value (T4302 CD133+ cells [1]; 24 hours following 3 Gy radiation) of the same compound?
Answer: The value was “not obvious”.

Question: What about the “Annexin V-positive labeled cells” value (T4302 CD133+ cells [1]; 48 hours following 3 Gy radiation) of the same compound?
Answer: Its value is “significantly increased”.

Question: What about the “percentage of Annexin V-positive cells” value (T4302 CD133+ cells [1]; NICD2 expression) of the same compound?
Answer: The value was “failed to increase”.

Question: What about the “Notch signaling in glioma stem cells (Notch-responsive luciferase reporter)” value (Notch signaling) of the same compound?
Answer: The value was “blocked”.

Question: What about the dead cells (T4302 CD133+ cells [2]) of the same compound?
Answer: Its dead cells is 60%.
